We go through two molecules from patent US8338410B2, “Neuroprotective compounds and pharmaceutical compositions comprising them” (Biocodex, priority 2005, dated 2012).

Data set [1] has as its system cortical neurones in the presence of astrocytes in culture. Description: Prior cytotoxicity, microscopic observation after 48 hours. The data set is classed as cell-based. The settings on record: 100 μM, 48 hours incubation. The protocol:
(§1) • Cell type: Initial culture of cortical neurones from 14 day rat embryos and initial culture of cortical astrocytes from newborn rats. • Culture medium: DMEM-Ham F12 (Invitrogen 21331020) • B27 2% (invitrogen 17504044) • L-glutamine 2 mM (Invitrogen 25030024) • Penicillin 50 UI/ml—Streptomycin 50 μg/ml (Invitrogen 15070063) • Nerve Growth Factor 10 ng/ml (NGF, Invitrogen 13290.010) • Survival medium: MEM (Invitrogen 21090022) • L-glutamine 2 mM (Invitrogen 25030024) • Penicillin 50 UI/ml—Streptomycin 50 μg/ml (Invitrogen 15070063) • Supplement N2 (Invitrogen 17502-048) 1.2 Prior Cytotoxicity • Platelets: 96 wells • Culture time: 8 days • Cells/well: cortical neurones+astrocytes • Product range: from 100 μM then ratio 3 • Replicates: 3 • Cell/product contact: 48 hours • Evaluation parameters: microscopic observation and MTT hydrolysis. • MTT: 3-(4,5-dimethylthiozol-2-yl)-2,5-diphenyltetrazolium bromide 1.3 Treatment and Analysis of the Network of Extensions Marked with Antineurofilament Antibody
A first experiment was carried out (conventional test used to measure the level of cell survival) in order to investigate the cytotoxicity of etifoxine in relation to cortical neurones in the presence of astrocytes in culture and thus to determine the maximum non-toxic concentration of etifoxine.

Data set [2] relates to mixed cultures of rat cortical neurones and astrocytes. Description: Density of neuritic extensions marked by anti-neurofilament antibody, with or without excess glutamate. The data set is classed as cell-based.
From the text: The principle of the investigation consisted of evaluating the survival of cortical neurones in co-culture with astrocytes after the application of a neurotoxic agent, excess glutamate.
Neurone survival is quantified by the density of the system of neuritic extensions marked by an anti-neurofilament antibody in the absence or presence of glutamate.
as §1
The cortical neurones were obtained from the cortex of 14 day rat embryos cultured in platelet culture medium 96 and then in a stove at 37° C. and 5% CO2 with saturated humidity. After 2 days culture astrocytes obtained from newborn rat cortex were seeded in the wells (in a ratio of 1 astrocyte to 4 neurones). After 10 days culture the mature neurones synthesised neurofilaments (structural protein specific to mature neurones); in addition to this these neurones expressed functional receptors to glutamate on their surfaces and could therefore be intoxicated.
On the 12th day of culture the medium was replaced by survival medium with or without etifoxine in 3 concentrations and the neurones were or were not intoxicated with glutamate (Sigma G1501) at a strength of 2 mM and 10 mM. Each culture condition was applied to 4 wells. The cultures were incubated for 2 periods (6 and 24 hours).
A positive control was carried out in the survival culture medium containing Nerve Growth Factor (NGF; 10 ng/ml) and basic Fibroblast Growth Factor (FGFb; 5 ng/ml) and the cells were intoxicated under the same conditions.
At the end of the two incubation periods (6 and 24 hours) the cell layers were fixed and marked with a anti-68- and 200 kD neurofilament monoclonal antibody (DAKO M0762) and then developed using a mouse anti-immunoglobulin goat antibody conjugate Alexia fluor 488 (Interchim A-11029). Controls without primary antibody were performed. All the controls were negative (no non-specific labelling). After extensive washing with PBS the preparations were observed under epi-fluorescence (Nikon Diaphot 300 microscope).
2 images were obtained for each culture well (4 wells per experimental condition) using a Nikon DXM1200F camera controlled by LUCIA 6.0 software.
All the images were obtained under the same conditions and with identical camera settings.
The densities of the networks of extensions marked with anti-neurofilament antibody were examined using LUCIA 6.0 software. Initial image processing made it possible to increase the intensity of the specific marking on the extensions. Areas in which marking was positive were binarised and the percentage marking per image was determined (marked surface area/total surface area examined).
The results (mean values±standard error with respect to the mean (SEM) were expressed as percentage marking per microscope field (n=8 measurements/culture conditions). 2-factor analysis of variance (Etifoxine and glutamate), followed by the Student Newman-Keuls multiple comparisons test was used for statistical comparison of the results. […]

The subject of data set [3] is mice subjected to hypobaric hypoxia. As to the kind of experiment: Hypobaric hypoxia in mice (survival time). In kind it is in vivo, NMRI male mice. The settings on record: for Percentage variation / Survival time in seconds (m ± sem): Table 4: mice, hypobaric hypoxia 160 mmHg. The protocol: 1.1 Hypobaric Hypoxia in Mice
NMRI male mice from Janvier weighing between 25 and 30 grams were used after acclimatisation in the animal house for at least 7 days (t°=22±2° C.; humidity 50±20%; feed UAR “A04” SAFE (Augy, France) and tap water ad libitum; 12 hour night and day cycle (light from 7 a.m. to 7 p.m.).
The unfasting […] were distributed at random into lots of 10.
The protocol of Nakaniski et al. (1973) Life Sciences, 13, 467-474 was adapted for the purposes of the model.
Each mouse was placed in a dessicator (hermetically sealed enclosure) in which atmospheric pressure was reduced from 760 to 160 mmHg using a water pump. This pressure reduction was carried out in one minute and caused death of the control animals in approximately 1 minute.
The survival time of the animal, which corresponded to the difference between the time to death of the mouse assessed by respiratory arrest less the time required to induce the hypoxia was then noted.
The products under investigation were administered intraperitoneally (i.p.) (0.1 ml/10 g), 30 minutes before inducing hypobaric hypoxia, or orally (0.1 ml/10 g p.o.) 1 hour before hypoxia.
Etifoxine hydrochloride was dissolved in 1% Tween 80. The potassium cyanide (Merck) was dissolved in 0.9% NaCl.
The statistical test used was a one-factor analysis of variance to determine the treated groups, which differed from the control group receiving the vehicle, at a threshold of 5%.

For data set [4], the system named is rats subjected to histotoxic hypoxia induced by potassium cyanide. As to the kind of experiment: KCN (i.v.) hypoxia in rats (survival time). The data set is classed as in vivo, Wistar male rats. Conditions: for Percentage variation / Survival time in seconds (m ± sem): Table 5: rats, KCN 4 mg/kg i.p. (so in the source).
The subject of data set [5] is mixed cultures of rat cortical neurones and astrocytes. Description: Density of neuritic extensions marked by anti-neurofilament antibody, with or without excess glutamate. In kind it is cell-based. Conditions: 10 μM of glutamate (so in the source), 6 hours, compound 1, 3 and 10 μM.

Turning to `CC1(c2ccccc2)OC(N)=Nc2ccc(Cl)cc21` (stereo not shown) [desethyl-etifoxine, 2-amino-6-chloro-4-methyl-4-phenyl-4H-[3,1]benzoxazine], in data set [1], the “astrocyte mortality, visual examination with a microscope” value is “astrocyte mortality was observed”. Besides, in data set [2] (control culture medium (without glutamate), 6 hours, significant at 10 μM), the “density of marked neurofilaments” value is recorded as “increased the density of labelled neurofilaments in a statistically significant way”. In addition, in data set [2] (glutamate 2 mM, 6 hours, only 10 μM of compound), the “density of neurofilaments in the presence of glutamate” value is “opposes the effect of glutamate”. For the same molecule, the Percentage variation entry was “+34%” in data set [3] (i.p. dose 30); “+32%” in data set [3] (i.p. dose 50); “+30%” in data set [3] (i.p. dose 75); “+45%” in data set [3] (p.o. dose 100); “+126%” in data set [3] (p.o. dose 200); “+126%” in data set [3] (p.o. dose 300). Besides, the Percentage variation in data set [4] (compound i.p. dose 30) is −4%; in data set [4] (compound i.p. dose 50) it was −3%; in data set [4] (compound i.p. dose 75) it was “+27%”; in data set [4] (compound p.o. dose 50), “+3%”; in data set [4] (compound p.o. dose 100), “+42%”; in data set [4] (compound p.o. dose 200), “+43%”. For the same molecule, the “Survival time in seconds (m ± sem)” value in data set [3] (i.p. dose 30) turned out to be 71.7 ± 4.8 s; in data set [3] (i.p. dose 50), 70.7 ± 4.3 s; in data set [3] (i.p. dose 75), 69.8 ± 2.7 s; in data set [3] (p.o. dose 100), 61.0 ± 2.6 s; in data set [3] (p.o. dose 200) it was 94.9 ± 9.9 s; in data set [3] (p.o. dose 300), 94.8 ± 11.2 s. For the same molecule, the “Survival time in seconds (m ± sem)” value in data set [4] (compound i.p. dose 30) worked out at 55.0 ± 1.5 s; in data set [4] (compound i.p. dose 50), 55.6 ± 1.5 s; in data set [4] (compound i.p. dose 75), 72.7 ± 5.5 s; in data set [4] (compound p.o. dose 50), 58.8 ± 1.9 s; in data set [4] (compound p.o. dose 100), 81.3 ± 3.8 s; in data set [4] (compound p.o. dose 200), 81.7 ± 4.1 s. Also, the survival time result is reported as “significant increase in survival time” in data set [3] (mice, hypobaric hypoxia, oral administration from 200 mg/kg) and “increased survival time in a non-significant manner” in data set [4] (rats, KCN hypoxia, 75 mg/kg i.p.). Besides, the anti-hypoxic activity entry in data set [3] (mice, hypobaric hypoxia, over 30 mg/kg i.p.) was “showed anti-hypoxic activity”; in data set [4] (rats, KCN hypoxia, over 100 mg/kg p.o.) it was “showed anti-hypoxic activity”. For the same molecule, the “density of marked neurofilaments in the presence of glutamate” value in data set [5] is reported as “opposes the decrease in the density of marked neurofilaments”.

Consider “FGF: positive control: survival culture medium containing Nerve Growth Factor (NGF; 10 ng/ml) and basic Fibroblast Growth Factor (FGFb; 5 ng/ml)”, for which the “density of neurofilaments in the presence of glutamate” value in data set [2] (positive control NGF 10 ng/ml + FGFb 5 ng/ml, glutamate 2 mM, 24 hours) is reported as “opposed the effects of 2 mM of glutamate”; in data set [2] (positive control NGF 10 ng/ml + FGFb 5 ng/ml, glutamate 2 and 10 mM, 6 hours) it was “opposed the decrease in density of neurofilaments induced by glutamate”.
